In patent US20260042763A1, “PE[…] POSITIVE […] THE TREATMENT OF IRRITABLE BOWEL SYNDROME AND OTHER AILMENTS OF THE PERIPHERAL NERVOUS SYSTEM” (The Johns Hopkins University, priority 2022, published 2026):
Like-named read-outs stand apart in the source and are kept apart here.

Target: T1, human isoforms of GABAA (α3ß2γ2) receptors (Homo sapiens, UniProt P18507+P34903)
T1 construct: expressed in transfected cells
Experiment: Potentiation of GABA-evoked currents at GABAA (α3β2γ2) receptors, automated patch-clamp (QPatch), Example B1
Assay type: cell-based
Details: for Emax: Emax of potentiation, read-out: Max %
Procedure: The ability of compounds exemplified above to potentiate the effect of GABA on GABAA receptors (α3β2γ2) was determined using one or more of the methods described below.
Ltk cells stably expressing the human isoforms of GABAA (α3ß2γ2) receptors were used together with submaximal GABA concentrations to investigate the modulatory effects of the test items. Cells were incubated at 37° C. in a humidified atmosphere with 5% CO2 (rel. humidity about 95%). The cells were continuously maintained in and passaged in sterile culture flasks containing a 1:1 mixture of Dulbecco's modified eagle medium and nutrient mixture D-MEM/F-12 (1×, liquid, with L-Glutamine), supplemented with 10% fetal bovine serum and 1.0% Penicillin/Streptomycin solution. The complete medium as indicated above was supplemented with neomycin. In general, cells were passaged at a confluence of about 80 to 90%. For electrophysiological measurements cells were harvested at a confluence of about 80 to 90% from sterile culture flasks containing culture complete medium. Cells were transferred as suspension in PBS to the QPatch 16X or QPatch HTX system to the centrifuge/washer directly. Expression of GABA receptor was induced by adding Dexamethasone to the cells for 24 to 48 h before experimentation.
Modulatory effects of the compounds of this disclosure were investigated using cells stably transfected with GABA-activated channels of the GABAA (α3ß2γ2) subtype together with submaximal GABA concentrations. Expression of GABA receptor were induced by adding Dexamethasone to the cells for 24 to 48 h before experimentation. In general, cells were passaged at a confluence of about 80 to 90%. For electrophysiological measurements cells were harvested at a confluence of about 80 to 90% from sterile culture flasks containing culture complete medium. Cells were transferred as suspension in PBS to the QPatch 16X or QPatch HTX system to the centrifuge/washer directly. Cells were incubated at 37° C. in a humidified atmosphere with 5% CO2 (rel. humidity about 95%). The cells were continuously maintained in and passaged in sterile culture flasks containing a 1:1 mixture of Dulbecco's modified eagle medium and nutrient mixture D-MEM/F-12 (1×, liquid, with L-Glutamine), supplemented with 10% foetal bovine serum and 1.0% Penicillin/Streptomycin solution and neomycin. The 1× bath solution was made at least every 5 days out of a sterile 10× bath solution, which had been prepared prior to the experimental start of the present study and stored at 1° C. to 9° C. The final bath solution included Sodium Chloride 137 mM, Potassium Chloride 4 mM, Calcium Chloride 1.8 mM, Magnesium Chloride 1 mM, HEPES 10 mM, D-Glucose 10 mM, pH (NaOH) 7.4. The 1× intracellular solution was thawed every day and includes Potassium Chloride 130 mM, Magnesium Chloride 1 mM, Mg-ATP 5 mM, HEPES 10 mM, EGTA 5 Mm, pH (KOH) 7.2. Automated patch-clamping: Cells were transferred as suspension in serum-free medium to the QPatch HTX system and kept in the cell storage tank during experiments. All solutions applied to cells including the intracellular solution were maintained at room temperature (19° C. to 30° C.). After formation of a Gigaohm seal between the patch electrodes and transfected individual Ltk cells were ruptured to assure electrical access to the cell interior (whole-cell patch-configuration). Inward currents were measured upon application of 2.0 μM GABA to patch-clamped cells for 4 s. During the entire experiment the cells were voltage-clamped at a holding potential of −80 mV. For the analysis of test items, GABAA receptors were stimulated by 2.0 μM GABA and test item combinations described below. Thirty-second prewash steps with test items was performed in between two agonist applications. […]

[1] = Ltk cells expressing GABAA α3β2γ2, 2.0 μM GABA, whole-cell, holding potential −80 mV

T1 sequence (P34903 29-492): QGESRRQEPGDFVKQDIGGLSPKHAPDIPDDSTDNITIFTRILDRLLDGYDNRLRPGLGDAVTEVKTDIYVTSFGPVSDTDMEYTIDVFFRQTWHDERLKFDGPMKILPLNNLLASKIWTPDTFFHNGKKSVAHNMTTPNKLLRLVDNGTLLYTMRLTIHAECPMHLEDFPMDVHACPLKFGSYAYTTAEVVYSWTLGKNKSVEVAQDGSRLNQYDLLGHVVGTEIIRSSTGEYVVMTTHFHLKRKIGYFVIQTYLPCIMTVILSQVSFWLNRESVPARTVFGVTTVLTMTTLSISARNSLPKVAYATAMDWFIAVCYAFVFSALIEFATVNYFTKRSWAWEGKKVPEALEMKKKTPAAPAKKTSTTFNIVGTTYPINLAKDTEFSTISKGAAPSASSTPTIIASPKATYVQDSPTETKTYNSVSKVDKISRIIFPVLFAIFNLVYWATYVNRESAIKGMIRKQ
T1 sequence (P47870 25-512 partner limits assumed): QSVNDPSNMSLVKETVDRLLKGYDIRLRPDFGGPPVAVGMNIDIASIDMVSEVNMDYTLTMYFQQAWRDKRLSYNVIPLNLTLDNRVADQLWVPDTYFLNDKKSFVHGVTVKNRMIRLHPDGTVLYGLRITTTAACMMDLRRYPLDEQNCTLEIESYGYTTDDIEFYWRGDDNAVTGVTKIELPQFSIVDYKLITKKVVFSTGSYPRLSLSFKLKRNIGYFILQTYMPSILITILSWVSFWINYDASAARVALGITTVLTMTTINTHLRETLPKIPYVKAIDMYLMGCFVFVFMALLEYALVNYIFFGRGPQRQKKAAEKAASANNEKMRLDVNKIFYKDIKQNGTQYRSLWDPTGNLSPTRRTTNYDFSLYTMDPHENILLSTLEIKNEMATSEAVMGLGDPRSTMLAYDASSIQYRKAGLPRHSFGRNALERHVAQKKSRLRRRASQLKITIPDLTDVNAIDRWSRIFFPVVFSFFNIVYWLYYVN
T1 sequence (P18507 40-475): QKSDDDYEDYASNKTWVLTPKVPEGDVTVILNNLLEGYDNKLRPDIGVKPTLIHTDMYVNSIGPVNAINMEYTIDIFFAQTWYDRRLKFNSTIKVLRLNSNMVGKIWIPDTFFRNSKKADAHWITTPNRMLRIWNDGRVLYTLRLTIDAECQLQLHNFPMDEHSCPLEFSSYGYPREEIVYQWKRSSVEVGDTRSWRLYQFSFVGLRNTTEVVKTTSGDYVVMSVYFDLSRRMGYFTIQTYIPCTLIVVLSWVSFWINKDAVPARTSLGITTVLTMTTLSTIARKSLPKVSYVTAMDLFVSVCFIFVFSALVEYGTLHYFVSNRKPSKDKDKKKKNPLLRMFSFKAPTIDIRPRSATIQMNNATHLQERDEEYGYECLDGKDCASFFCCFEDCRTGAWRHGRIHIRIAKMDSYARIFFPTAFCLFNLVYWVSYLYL

## CC1N=C(c2ccccc2F)c2cc(Cl)ccc2-n2cc(C(=O)O)nc21 (racemic) [Compound 101, 12-Chloro-9-(2-fluorophenyl)-7-methyl-2,5,8-triazatricyclo[8.4.0.0^2,6] tetradeca-1 (10),3,5,8,11,13-hexaene-4-carboxylic acid]
  EC50: < 0.05 µM
[1]
  Emax: > 100%

## CC(C)CC1N=C(c2ccccc2F)c2cc(Cl)ccc2-n2cc(C(=O)O)nc21 (centres unmarked) [Compound 102, 8-chloro-6-(2-fluorophenyl)-4-isobutyl-4H-imidazo[1,2-a][1,4]benzodiazepine-2-carboxylic acid]
[1]
  Emax: 50 to 100%
Ltk cells expressing GABAA α3β2γ2, 2.0 μM GABA, whole-cell, holding potential −80 mV, read-out: EC50
  EC50: > 0.1 µM

## O=C(O)c1cn2c(n1)CN=C(c1ccccc1F)c1cc(Cl)c(F)cc1-2 [Compound 201, 8-chloro-9-fluoro-6-(2-fluorophenyl)-4H-imidazo[1,2-a][1,4]benzodiazepine-2-carboxylic acid]
  EC50: < 0.05 µM
[1]
  Emax: > 100%

## C[N+](C)(C)Cc1cn2c(n1)CN=C(c1ccccc1F)c1cc(Cl)ccc1-2 [Compound 202, {[12-chloro-9-(2-fluorophenyl)-2,5,8-triazatricyclo[8.4.0.0^2,6]tetradeca-1 (10),3,5,8,11,13-hexaen-4-yl]methyl}trimethylazanium chloride]
  EC50: < 0.05 µM
[1]
  Emax: 50 to 100%

## O=C(O)c1cn2c(n1)CN=C(c1ccccc1F)c1cc(Cl)cc(F)c1-2 [Compound 203, 12-Chloro-14-fluoro-9-(2-fluorophenyl)-2,5,8-triazatricyclo[8.4.0.0^2,6] tetradeca-1 (10),3,5,8,11,13-hexaene-4-carboxylic acid]
  EC50: 0.05 to 0.1 µM
[1]
  Emax: 50 to 100%

## Cc1ccccc1C1=NCc2nc(C(=O)O)cn2-c2ccc(Cl)cc21 [Compound 204, 8-chloro-6-(o-tolyl)-4H-imidazo[1,2-a][1,4]benzodiazepine-2-carboxylic acid]
  EC50: < 0.05 µM
[1]
  Emax: > 100%

## COc1cc2c(cc1Cl)C(c1ccccc1F)=NCc1nc(C(=O)O)cn1-2 [Compound 205, 8-chloro-6-(2-fluorophenyl)-9-methoxy-4H-imidazo[1,2-a][1,4]benzodiazepine-2-carboxylic acid]
  EC50: < 0.05 µM
[1]
  Emax: > 100%

## O=C(O)c1cn2c(n1)CN=C(c1ccccc1Br)c1cc(Cl)ccc1-2 [Compound 206, 6-(2-bromophenyl)-8-chloro-4H-imidazo[1,2-a][1,4]benzodiazepine-2-carboxylic acid]
  EC50: < 0.05 µM
[1]
  Emax: 50 to 100%

## O=C(O)c1cn2c(n1)CN=C(c1ccccc1F)c1cc(Br)ccc1-2 [Compound 207, 8-bromo-6-(2-fluorophenyl)-4H-imidazo[1,2-a][1,4]benzodiazepine-2-carboxylic acid]
  EC50: < 0.05 µM
[1]
  Emax: > 100%

## CS(=N)(=O)CCNC(=O)c1cn2c(n1)CN=C(c1ccccc1F)c1cc(Cl)ccc1-2 (centres unmarked) [Compound 208, 8-chloro-6-(2-fluorophenyl)-N-[2-(methylsulfonimidoyl)ethyl]-4H-imidazo[1,2-a][1,4]benzodiazepine-2-carboxamide]
  EC50: < 0.05 µM
[1]
  Emax: 50 to 100%

## CP(C)(=O)CCCNC(=O)c1cn2c(n1)CN=C(c1ccccc1F)c1cc(Cl)ccc1-2 [Compound 209, 8-chloro-N-(3-dimethylphosphorylpropyl)-6-(2-fluorophenyl)-4H-imidazo[1,2-a][1,4]benzodiazepine-2-carboxamide]
  EC50: < 0.05 µM
[1]
  Emax: 50 to 100%

## NCCNC(=O)c1cn2c(n1)CN=C(c1ccccc1F)c1cc(Cl)ccc1-2 [Compound 210, N-(2-aminoethyl)-8-chloro-6-(2-fluorophenyl)-4H-imidazo[1,2-a][1,4]benzodiazepine-2-carboxamide]
  EC50: < 0.05 µM
[1]
  Emax: > 100%

## COCCOCCOCCOCCNC(=O)c1cn2c(n1)CN=C(c1ccccc1F)c1cc(Cl)ccc1-2 [Compound 211, 8-chloro-6-(2-fluorophenyl)-N-[2-[2-[2-(2-methoxyethoxy)ethoxy]ethoxy]ethyl]-4H-imidazo[1,2-a][1,4]benzodiazepine-2-carboxamide]
  EC50: 0.05 to 0.1 µM
[1]
  Emax: > 100%
